One compound from patent US11866708B2, “Tailored modulation of gene regulation programs via functional enhancer RNA” (Board of Regents, The University of Texas System, priority 2019, dated 2024) can be followed below.

The assay has as its system TNFSF10. Put plainly: TNFSF10 and eRNA expression with TIC10 treatment. The assay is classed as cell-based, human. The settings on record: TIC10 treatment 48 hours; FIG. 6F left.

Procedure: For the negative control experiment, 5 uM of TIC10 (SML1068, Sigma-Aldrich) was treated for 48 hrs to activate the apoptosis pathway by inducing the level of TNFSF10 expression.

For `Cc1ccccc1CN1C(=O)C2=C(CCN(Cc3ccccc3)C2)N2CCN=C12` [TIC10], the TNFSF10 expression result is reported as “induced TNFSF10 expression significantly” and the “expression of the virus inducible eRNAs associated with the TNFSF10 gene” value was “did not affect expression”.
